Data taken from patent US20250144067A1, “PERSONALIZED STARVATION THERAPY FOR CANCER” (Faeth Therapeutics, Inc., priority 2021, published 2025).
Counter-ions that a name gives are not always drawn. Like-named read-outs stand apart in the source and are kept apart here.

Experiments:
[1] = test system: NCI-H292 lung cancer cells; test: FDA drug screening, complete media vs cholesterol-free media with simvastatin (TABLE 2); format: cell-based, human
[2] = test system: NCI-H292 lung cancer cells; test: FDA drug screening, complete media vs cholesterol-free media without statin (TABLE 1); format: cell-based, human
[3] = NCI-H292 cells, cholesterol-free media with simvastatin 0.04 μM, cell growth value in FDA drug screen
[4] = NCI-H292 cells, complete media, cell growth value in FDA drug screen
[5] = complete media minus cholesterol-free media + simvastatin, >0 enhanced anti-cancer activity, about 0 neutral, <0 antagonist
[6] = Complete minus Cholesterol-free, >0 enhanced anti-cancer activity, about 0 neutral, <0 antagonist
[7] = NCI-H292 cells, cholesterol-free media without statin
[8] = NCI-H292 cells, FDA drug library screen, cholesterol-free media with simvastatin 0.04 μM
[9] = NCI-H292 cells, FDA drug library screen, complete media
[10] = complete media vs cholesterol-free media + simvastatin (0.04 μM), […]
[11] = complete vs cholesterol-free media, […]
[12] = NCI-H292 cells, cholesterol-free media with simvastatin 0.04 μM, FDA drug library screen (TABLE 2)
[13] = NCI-H292 cells, complete media, FDA drug library screen (TABLE 2)
[14] = complete media minus cholesterol-free media + simvastatin (0.04 μM), >0 enhanced anti-cancer activity, about 0 neutral, <0 antagonist
[15] = complete media vs cholesterol-free media + simvastatin (0.04 μM), >0 enhanced anti-cancer activity, about 0 neutral, <0 antagonist
[16] = NCI-H292 cells, cholesterol-free media without statin, FDA drug library screen
[17] = NCI-H292 cells, complete media, FDA drug library screen
[18] = complete vs cholesterol-free media, >0 enhanced anti-cancer activity, about 0 neutral, <0 antagonist
[19] = Complete minus Cholesterol-free, greater than 0 enhanced anti-cancer activity, about 0 neutral, below 0 antagonist
[20] = NCI-H292 cells, FDA drug library screen, cholesterol-free media without statin
[21] = NCI-H292 cells, cholesterol-free media with simvastatin 0.04 μM, […]
[22] = NCI-H292 cells, complete media, […]
[23] = complete media minus cholesterol-free media + simvastatin, […]
[24] = Complete minus Cholesterol-free, […]
[25] = NCI-H292 cells in cholesterol-free media without statin
[26] = NCI-H292 cells in complete media
[27] = NCI-H292 cells, FDA library drug in cholesterol-free media with simvastatin 0.04 μM
[28] = NCI-H292 cells, FDA library drug in complete media
[29] = complete vs cholesterol-free media, greater than 0 enhanced anti-cancer activity, about 0 neutral, below 0 antagonists
[30] = Complete minus Cholesterol-free, greater than 0 enhanced anti-cancer activity, about 0 neutral, below 0 antagonists

COc1c(O)cc2c(c1O)[C@@H]1O[C@H](CO)[C@@H](O)[C@H](O)[C@H]1OC2=O [Bergenin]
Cholesterol-free media + simvastatin (0.04 μM) [1, 3]: 0.6754
Complete Media [1, 4]: 0.7494
Difference [1, 5]: 0.07
Difference [2, 6]: −0.21
Cholesterol-free [2, 7]: 0.9949
Complete ([2]; NCI-H292 cells, complete media): 0.7827

Pimavanserin tartrate
Cholesterol-free media + simvastatin (0.04 μM) [1, 8]: 1.092
Complete Media [1, 9]: 0.9419
Difference [1, 10]: −0.15
Cholesterol-free [2, 7]: 1.261
Complete ([2]; NCI-H292 cells, complete media): 0.9005
Difference [2, 11]: −0.36

N[C@@H](CS)C(=O)O [L-Cysteine]
Cholesterol-free media + simvastatin (0.04 μM) [1, 12]: 1.471
Complete Media [1, 13]: 1.439
Difference [1, 14]: −0.03
Difference [2, 6]: −0.21
Complete ([2]; NCI-H292 cells, complete media): 0.7323

N[C@@H](Cc1c[nH]c2ccccc12)C(=O)O [L-Tryptophan]
Cholesterol-free media + simvastatin (0.04 μM) ([1]; NCI-H292 cells, drug in cholesterol-free media with simvastatin 0.04 μM): 1.157
Complete Media ([1]; NCI-H292 cells, drug in complete media): 0.9202
Difference [1, 15]: −0.24
Cholesterol-free [2, 16]: 1.009
Complete [2, 17]: 1.103
Difference [2, 18]: 0.09

Cc1oncc1C(=O)Nc1ccc(C(F)(F)F)cc1 [Leflunomide]
Cholesterol-free media + simvastatin (0.04 μM) [1, 12]: 0.9978
Complete Media [1, 13]: 0.949
Difference [1, 14]: −0.05
Difference [2, 19]: −0.16
Cholesterol-free [2, 20]: 0.8738
Complete [2, 9]: 0.714

OC[C@H]1NC[C@H](O)[C@@H](O)[C@H]1O [Migalastat (hydrochloride)]
Cholesterol-free media + simvastatin (0.04 μM) [1, 21]: 0.7275
Complete Media [1, 22]: 0.7465
Difference [1, 23]: 0.02
Difference [2, 24]: −0.53
Cholesterol-free [2, 25]: 1.45
Complete [2, 26]: 0.9162

Atosiban (acetate)
Cholesterol-free media + simvastatin (0.04 μM) [1, 27]: 1.587
Difference [1, 10]: −0.52
Cholesterol-free [2, 7]: 1.199
Complete ([2]; NCI-H292 cells, complete media): 0.8162
Difference [2, 11]: −0.38

Cc1onc(-c2ccccc2)c1C(=O)N[C@@H]1C(=O)N2[C@@H]1SC(C)(C)[C@@H]2C(=O)O [Oxacillin (sodium monohydrate)]
Cholesterol-free media + simvastatin (0.04 μM) [1, 27]: 1.304
Complete Media [1, 28]: 1.035
Difference [1, 15]: −0.27
Difference [2, 6]: −0.02
Cholesterol-free [2, 16]: 0.9255
Complete [2, 17]: 0.9062

CC(C)(C)CC(C)(C)c1ccc(OCCOCC[N+](C)(C)Cc2ccccc2)cc1 [Benzethonium chloride]
Cholesterol-free media + simvastatin (0.04 μM) [1]: 0.6785
Complete Media [1]: 0.4348
Difference [1]: −0.24
Cholesterol-free [2]: 0.07505
Complete [2]: 0.2197
Difference [2]: 0.14

COC(=O)C[C@](O)(CCC(C)(C)O)C(=O)O[C@@H]1C(OC)=C[C@]23CCCN2CCc2cc4c(cc2[C@H]13)OCO4 [Harringtonine]
Cholesterol-free media + simvastatin (0.04 μM) [1, 12]: −0.01111
Complete Media [1, 13]: −0.002434
Difference ([1]; complete media minus cholesterol-free media + simvastatin (0.04 μM), […]): 0.01
Difference [2, 24]: −0.01
Cholesterol-free [2, 16]: 0.0181
Complete [2, 17]: 0.006818

COC(=O)/C=C/C(=O)OCCN1C(=O)CCC1=O [Diroximel fumarate]
Cholesterol-free media + simvastatin (0.04 μM) [1, 8]: 0.9299
Complete Media [1, 9]: 1.101
Difference [1, 5]: 0.17
Difference [2, 6]: −0.30
Cholesterol-free [2, 7]: 1.046
Complete ([2]; NCI-H292 cells, complete media): 0.7458

N[C@@H](Cc1cc(I)c(Oc2ccc(O)c(I)c2)c(I)c1)C(=O)O [Liothyronine]
Cholesterol-free media + simvastatin (0.04 μM) [1, 8]: 1.186
Complete Media [1, 9]: 1.048
Difference [1, 15]: −0.14
Difference [2, 6]: −0.26
Cholesterol-free [2, 7]: 1.173
Complete ([2]; NCI-H292 cells, complete media): 0.9078

CC(C)CN(C[C@@H](OP(=O)(O)O)[C@H](Cc1ccccc1)NC(=O)O[C@H]1CCOC1)S(=O)(=O)c1ccc(N)cc1 [Fosamprenavir (Calcium Salt)]
Cholesterol-free media + simvastatin (0.04 μM) [1, 3]: 0.8511
Complete Media [1, 4]: 0.8779
Difference [1, 5]: 0.03
Difference [2, 19]: −0.11
Cholesterol-free [2, 20]: 1.061
Complete [2, 9]: 0.9495

COC(=O)C1=C(C)NC(C)=C(C(=O)OC2CCCN(Cc3ccccc3)C2)C1c1cccc([N+](=O)[O-])c1 (stereo not shown) [Benidipine (hydrochloride)]
Cholesterol-free media + simvastatin (0.04 μM) [1, 3]: 1.054
Difference [1, 5]: 0.11
Cholesterol-free [2, 7]: 0.9476
Complete ([2]; NCI-H292 cells, complete media): 0.5889
Difference [2, 29]: −0.36

N[C@@H](C(=O)N[C@@H]1C(=O)N2C(C(=O)O)=C(Cl)CS[C@H]12)c1ccccc1 [Cefaclor]
Cholesterol-free media + simvastatin (0.04 μM) [1, 3]: 1.593
Complete Media [1, 4]: 1.696
Difference [1, 5]: 0.10
Difference [2, 19]: −0.11
Cholesterol-free [2, 20]: 1.02
Complete [2, 9]: 0.9111

COc1cc2nc(N(C)CCCNC(=O)C3CCCO3)nc(N)c2cc1OC (stereo not shown) [Alfuzosin]
Cholesterol-free media + simvastatin (0.04 μM) [1, 8]: 1.185
Complete Media [1, 9]: 1.024
Difference [1, 15]: −0.16
Difference [2, 19]: −0.14
Cholesterol-free [2, 20]: 0.9745
Complete [2, 9]: 0.8372

CCOC(=O)O[C@]1(C(=O)OCCl)CC[C@H]2[C@@H]3CCC4=CC(=O)C=C[C@]4(C)[C@H]3[C@@H](O)C[C@@]21C [Loteprednol Etabonate]
Cholesterol-free media + simvastatin (0.04 μM) [1, 8]: 0.9128
Complete Media [1, 9]: 1.184
Difference [1, 5]: 0.27
Cholesterol-free [2, 16]: 0.5384
Complete [2, 17]: 0.8969
Difference [2, 18]: 0.36

CC(=O)N(CC(O)CN(C(C)=O)c1c(I)c(C(=O)NCC(O)CO)c(I)c(C(=O)NCC(O)CO)c1I)c1c(I)c(C(=O)NCC(O)CO)c(I)c(C(=O)NCC(O)CO)c1I (stereo not shown) [Iodixanol]
Cholesterol-free media + simvastatin (0.04 μM) [1, 12]: 1.197
Complete Media [1, 13]: 1.164
Difference [1, 14]: −0.03
Cholesterol-free [2, 16]: 0.9782
Complete [2, 17]: 1.054
Difference [2, 18]: 0.08

NC(CO)(CO)CO [Trometamol]
Cholesterol-free media + simvastatin (0.04 μM) [1, 8]: 1.116
Complete Media [1, 9]: 0.9694
Difference [1, 15]: −0.15
Cholesterol-free [2, 7]: 1.471
Complete ([2]; NCI-H292 cells, complete media): 1.133
Difference [2, 29]: −0.34

CC(Oc1c(Cl)cccc1Cl)C1=NCCN1 (stereo not shown) [Lofexidine (hydrochloride)]
Cholesterol-free media + simvastatin (0.04 μM) [1, 3]: 1.271
Complete Media [1, 4]: 1.376
Difference [1, 5]: 0.10
Difference [2, 30]: −0.50
Cholesterol-free [2, 25]: 1.453
Complete [2, 26]: 0.95

Oc1cc(Cl)ccc1Oc1ccc(Cl)cc1Cl [Triclosan]
Cholesterol-free media + simvastatin (0.04 μM) [1, 21]: 1.015
Complete Media [1, 22]: 1.093
Difference [1, 23]: 0.08
Difference [2, 24]: −0.91
Cholesterol-free [2, 25]: 1.986
Complete [2, 26]: 1.081

Oc1ncnc2[nH]ncc12 [Allopurinol]
Cholesterol-free media + simvastatin (0.04 μM) [1, 3]: 0.8896
Complete Media [1, 4]: 0.9734
Difference [1, 5]: 0.08
Difference [2, 6]: −0.29
Cholesterol-free [2, 7]: 1.198
Complete ([2]; NCI-H292 cells, complete media): 0.9095

CC(=O)S[C@@H]1CC2=CC(=O)CC[C@]2(C)[C@H]2CC[C@@]3(C)[C@@H](CC[C@@]34CCC(=O)O4)[C@H]12 [Spironolactone]
Cholesterol-free media + simvastatin (0.04 μM) [1, 27]: 1.784
Complete Media [1, 28]: 1.272
Difference [1, 15]: −0.51
Difference [2, 6]: 0.03
Cholesterol-free [2, 16]: 1.102
Complete [2, 17]: 1.134

Isoconazole (nitrate)
Cholesterol-free media + simvastatin (0.04 μM) [1, 8]: 0.3001
Complete Media [1, 9]: 0.7337
Difference [1, 23]: 0.43
Difference [2, 24]: −0.15
Cholesterol-free [2, 20]: 1.53
Complete [2, 9]: 1.383

CC1(C)S[C@@H]2[C@H](/N=C/N3CCCCCC3)C(=O)N2[C@H]1C(=O)O [Mecillinam]
Cholesterol-free media + simvastatin (0.04 μM) [1, 8]: 1.033
Complete Media [1, 9]: 1.74
Difference [1, 5]: 0.71
Difference [2, 19]: −0.15
Cholesterol-free [2, 20]: 0.9011
Complete [2, 9]: 0.7528

Bivalirudin (TFA)
Complete Media [1, 9]: 0.9368
Difference [1, 10]: −0.13
Cholesterol-free [2, 16]: 1.02
Complete [2, 17]: 1.118
Difference [2, 11]: 0.10

Cl.NC(CO)(CO)CO [Trometamol (hydrochloride)]
Cholesterol-free media + simvastatin (0.04 μM) [1]: 1.673
Complete Media [1]: 1.379
Difference [1]: −0.29
Cholesterol-free [2]: 0.9218
Complete [2]: 0.6947
Difference [2]: −0.23

Bretylium (tosylate)
Complete Media [1, 28]: 0.8163
Difference [1, 15]: −0.40
Cholesterol-free [2, 16]: 0.5154
Complete [2, 17]: 0.751
Difference [2, 18]: 0.24

NC(=O)c1cccc2cn(-c3ccc([C@@H]4CCCNC4)cc3)nc12 [Niraparib (hydrochloride)]
Cholesterol-free media + simvastatin (0.04 μM) [1, 3]: 0.7422
Complete Media [1, 4]: 0.838
Difference [1, 5]: 0.10
Difference [2, 30]: −0.48
Cholesterol-free [2, 25]: 1.435
Complete [2, 26]: 0.9534
